Experimental data reported in patent US11090304B2 (Amgen Inc., priority 2018, dated 2021).

What follows are molecules tested against GDP-bound KRAS protein (aa 1-169), containing both G12C and C118A amino acid substitutions (Homo sapiens, UniProt P01116, C118A/G12C) (assay: Coupled nucleotide exchange assay (SOS-mediated, AlphaScreen)). Conditions: 5 min compound pre-incubation.
Assay type: biochemical

GDP-bound KRAS protein (aa 1-169), containing both G12C and C118A amino acid substitutions, sequence (P01116 1-169 isoform P01116-2 G12C/C118A): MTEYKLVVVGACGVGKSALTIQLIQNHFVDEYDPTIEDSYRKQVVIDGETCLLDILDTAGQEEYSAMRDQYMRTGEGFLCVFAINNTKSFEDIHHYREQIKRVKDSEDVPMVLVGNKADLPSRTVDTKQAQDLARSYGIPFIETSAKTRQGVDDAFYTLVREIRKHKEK

SMILES	Coupled exchange IC50 (5 min)
C=CC(=O)N1CCN(c2nc(=O)n(-c3c(F)cccc3F)c3nc(Cl)c(Cl)cc23)[C@@H](C)C1 [Example 60-16, 6,7-dichloro-1-(2,6-difluorophenyl)-4-((2S)-2-Methyl-4-(2-propenoyl)-1-piperazinyl)pyrido[2,3-d]pyrimidin-2(1H)-one]	46.1 | nda μM
C=CC(=O)N1CCN(c2nc(=O)n(-c3c(F)cccc3F)c3nc(-c4c(O)cccc4F)c(Cl)cc23)[C@@H](C)C1 [Example 60-17, 6-chloro-1-(2,6-difluorophenyl)-7-(2-fluoro-6-hydroxyphenyl)-4-((2S)-2-methyl-4-(2-propenoyl)-1-piperazinyl)pyrido[2,3-d]pyrimidin-2(1H)-one]	5.74 | nda μM
C=CC(=O)N1CCN(c2nc(=O)n(CC3CCN(C(=O)OC(C)(C)C)CC3)c3nc(Cl)c(Cl)cc23)[C@@H](C)C1 [Example 60-25, 2-methyl-2-propanyl 4-((6,7-dichloro-4-((2S)-2-methyl-4-(2-propenoyl)-1-piperazinyl)-2-oxopyrido[2,3-d]pyrimidin-1(2H)-yl)methyl)-1-piperidinecarboxylate]	25.5 | nda μM
C=CC(=O)N1CCN(c2nc(=O)n(-c3ccccc3C(C)O)c3nc(-c4c(O)cccc4F)c(Cl)cc23)[C@@H](C)C1 (stereo partly drawn) [Example 60-27, 6-chloro-7-(2-fluoro-6-hydroxyphenyl)-1-(2-((1R)-1-hydroxyethyl)phenyl)-4-((2S)-2-methyl-4-(2-propenoyl)-1-piperazinyl)pyrido[2,3-d]pyrimidin-2(1H)-one | 6-chloro-7-(2-fluoro-6-hydroxyphenyl)-1-(2-((1S)-1-hydroxyethyl)phenyl)-4-((2S)-2-methyl-4-(2-propenoyl)-1-piperazinyl)pyrido[2,3-d]pyrimidin-2(1H)-one]	1.3 | nda μM
C=CC(=O)N1CCN(c2nc(=O)n(-c3c(C)cccc3C(C)C)c3nc(-c4c(O)cccc4F)c(F)cc23)C[C@@H]1C [Example 63-1, 6-Fluoro-7-(2-fluoro-6-hydroxyphenyl)-1-(2-methyl-6-(2-propanyl)phenyl)-4-((3S)-3-methyl-4-(2-propenoyl)-1-piperazinyl)pyrido[2,3-d]pyrimidin-2(1H)-one]	2.15 | nda μM
C=CC(=O)N1CCN(c2nc(=O)n(-c3c(CC)cccc3CC)c3nc(N4CC[C@H](C)C4)c(Cl)cc23)[C@@H](C)C1 [Example 66-5, 6-chloro-1-(2,6-diethylphenyl)-4-((2S)-2-methyl-4-(2-propenoyl)-1-piperazinyl)-7-((3S)-3-methyl-1-pyrrolidinyl)pyrido[2,3-d]pyrimidin-2(1H)-one]	21.2 | nda μM
C=CC(=O)N1CCN(c2nc(=O)n(-c3c(CC)cccc3CC)c3nc(N4CC[C@H](F)C4)c(Cl)cc23)[C@@H](C)C1 [Example 66-6, 6-chloro-1-(2,6-diethylphenyl)-7-((3S)-3-fluoro-1-pyrrolidinyl)-4-((2S)-2-methyl-4-(2-propenoyl)-1-piperazinyl)pyrido[2,3-d]pyrimidin-2(1H)-one]	14.9 | nda μM
C=CC(=O)N1CCN(c2nc(=O)n(-c3c(CC)cccc3CC)c3nc(N4CC[C@@H](F)C4)c(Cl)cc23)[C@@H](C)C1 [Example 66-7, 6-chloro-1-(2,6-diethylphenyl)-7-((3R)-3-fluoro-1-pyrrolidinyl)-4-((2S)-2-methyl-4-(2-propenoyl)-1-piperazinyl)pyrido[2,3-d]pyrimidin-2(1H)-one]	88 | nda μM
C=CC(=O)N1CCN(c2nc(=O)n(-c3c(CC)cccc3CC)c3nc(N4CCC[C@@H]4CO)c(Cl)cc23)[C@@H](C)C1 [Example 66-9, 6-chloro-1-(2,6-diethylphenyl)-7-((2R)-2-(hydroxymethyl)-1-pyrrolidinyl)-4-((2S)-2-methyl-4-(2-propenoyl)-1-piperazinyl)pyrido[2,3-d]pyrimidin-2(1H)-one]	99.5 | nda μM

Further lines, results first:

Coupled exchange IC50 (5 min)	SMILES
26.4 | nda μM	C=CC(=O)N1CCN(c2nc(=O)n(-c3c(CC)cccc3CC)c3nc(N4CCC(C)C4)c(Cl)cc23)[C@@H](C)C1 (stereo partly drawn) [Example 66-10, 6-chloro-1-(2,6-diethylphenyl)-4-((2S)-2-methyl-4-(2-propenoyl)-1-piperazinyl)-7-(3-methyl-1-pyrrolidinyl)pyrido[2,3-d]pyrimidin-2(1H)-one]
29 | nda μM	C=CC(=O)N1CCN(c2nc(=O)n(-c3c(CC)cccc3CC)c3nc(N4CCC(CC)C4)c(Cl)cc23)[C@@H](C)C1 (stereo partly drawn) [Example 66-11, 6-chloro-1-(2,6-diethylphenyl)-7-(3-ethyl-1-pyrrolidinyl)-4-((2S)-2-methyl-4-(2-propenoyl)-1-piperazinyl)pyrido[2,3-d]pyrimidin-2(1H)-one]
65 | nda μM	C=CC(=O)N1CCN(c2nc(=O)n(-c3c(CC)cccc3CC)c3nc(N4CCC(CC(C)C)C4)c(Cl)cc23)[C@@H](C)C1 (stereo partly drawn) [Example 66-12, 6-chloro-1-(2,6-diethylphenyl)-4-((2S)-2-methyl-4-(2-propenoyl)-1-piperazinyl)-7-(3-(2-methylpropyl)-1-pyrrolidinyl)pyrido[2,3-d]pyrimidin-2(1H)-one]
5.51 | nda μM	C=CC(=O)N1CCN(c2nc(=O)n(-c3c(CC)cccc3CC)c3nc(N4CCC(F)(F)C4)c(Cl)cc23)[C@@H](C)C1 [Example 66-14, 6-chloro-1-(2,6-diethylphenyl)-7-(3,3-difluoro-1-pyrrolidinyl)-4-((2S)-2-methyl-4-(2-propenoyl)-1-piperazinyl)pyrido[2,3-d]pyrimidin-2(1H)-one]
89.7 | nda μM	C=CC(=O)N1CCN(c2nc(=O)n(-c3c(CC)cccc3CC)c3nc(N4CCOC(CC)C4)c(Cl)cc23)[C@@H](C)C1 (stereo partly drawn) [Example 66-15, 6-chloro-1-(2,6-diethylphenyl)-7-(2-ethyl-4-morpholinyl)-4-((2S)-2-methyl-4-(2-propenoyl)-1-piperazinyl)pyrido[2,3-d]pyrimidin-2(1H)-one]
75.5 | nda μM	C=CC(=O)N1CCN(c2nc(=O)n(-c3c(CC)cccc3CC)c3nc(N4CCOC5(CCCC5)C4)c(Cl)cc23)[C@@H](C)C1 [Example 66-17, 6-chloro-1-(2,6-diethylphenyl)-4-((2S)-2-methyl-4-(2-propenoyl)-1-piperazinyl)-7-(6-oxa-9-azaspiro[4.5]decan-9-yl)pyrido[2,3-d]pyrimidin-2(1H)-one]
76.7 | nda μM	C=CC(=O)N1CCN(c2nc(=O)n(-c3c(CC)cccc3CC)c3nc(N4CCOC(C(C)C)C4)c(Cl)cc23)[C@@H](C)C1 (stereo partly drawn) [Example 66-18, 6-chloro-1-(2,6-diethylphenyl)-4-((2S)-2-methyl-4-(2-propenoyl)-1-piperazinyl)-7-(2-(2-propanyl)-4-morpholinyl)pyrido[2,3-d]pyrimidin-2(1H)-one]
28.2 | nda μM	C=CC(=O)N1CCN(c2nc(=O)n(-c3c(CC)cccc3CC)c3nc(N4CCC(CC)(CC)C4)c(Cl)cc23)[C@@H](C)C1 [Example 66-20, 6-chloro-1-(2,6-diethylphenyl)-7-(3,3-diethyl-1-pyrrolidinyl)-4-((2S)-2-methyl-4-(2-propenoyl)-1-piperazinyl)pyrido[2,3-d]pyrimidin-2(1H)-one]
33 | nda μM	C=CC(=O)N1CCN(c2nc(=O)n(-c3c(CC)cccc3CC)c3nc(N4CCC(C(C)(C)C)C4)c(Cl)cc23)[C@@H](C)C1 (stereo partly drawn) [Example 66-21]
